This data set concerns rodent lifetime carcinogenesis bioassay, tumor incidence TD50. Description: chronic cancer bioassays in animals – CPDB, compiled studies (AID 1745844). The following applies: for carcinogen call: strain Sprague-Dawley, lesion: one or several types, types not named, dosed 52 weeks.

Activity calls are given as the source filed them. No rule for the calls is given here.

By TD50 is commonly meant the dose at which the toxic effect under study appears in half of the subjects. With `CN(N)C=O`, the TD50 reads like this: (hamster, strain Syrian Golden, females, in drinking water, site: all sites, lesion: histiocytoma, malignant, dosed 102 weeks, study length 102 weeks) 4.71 mg/kg/day; (hamster, strain Syrian Golden, females, in drinking water, site: any site (literature study), lesion: several types, types named in the paper, dosed 102 weeks, study length 102 weeks) 6.04 mg/kg/day; (hamster, strain Syrian Golden, females, in drinking water, site: gall bladder, lesion: several types, types named in the paper, dosed 102 weeks, study length 102 weeks) 29.1 mg/kg/day; (hamster, strain Syrian Golden, females, in drinking water, site: liver, lesion: hepatoma, dosed 102 weeks, study length 102 weeks) 28.3 mg/kg/day; (hamster, strain Syrian Golden, females, in drinking water, site: liver, lesion: liver-cell carcinoma, dosed 102 weeks, study length 102 weeks) 25.1 mg/kg/day; (hamster, strain Syrian Golden, females, in drinking water, site: liver, lesion: several types, types named in the paper, dosed 102 weeks, study length 102 weeks) 11.3 mg/kg/day. Besides, the TD50 runs as follows: (hamster, strain Syrian Golden, males, in drinking water, site: all sites, lesion: histiocytoma, malignant, dosed 102 weeks, study length 102 weeks) 12.7 mg/kg/day; (hamster, strain Syrian Golden, males, in drinking water, site: any site (literature study), lesion: several types, types named in the paper, dosed 102 weeks, study length 102 weeks) 4.89 mg/kg/day; (hamster, strain Syrian Golden, males, in drinking water, site: bile duct, lesion: several types, types named in the paper, dosed 102 weeks, study length 102 weeks) 19.7 mg/kg/day; (hamster, strain Syrian Golden, males, in drinking water, site: gall bladder, lesion: papillary adenoma, dosed 102 weeks, study length 102 weeks) 42.5 mg/kg/day; (hamster, strain Syrian Golden, males, in drinking water, site: gall bladder, lesion: several types, types named in the paper, dosed 102 weeks, study length 102 weeks) 25.3 mg/kg/day; (hamster, strain Syrian Golden, males, in drinking water, site: liver, lesion: hepatoma, dosed 102 weeks, study length 102 weeks) 13.3 mg/kg/day. Further, the TD50 runs as follows: (hamster, strain Syrian Golden, males, in drinking water, site: liver, lesion: liver-cell carcinoma, dosed 102 weeks, study length 102 weeks) 30 mg/kg/day; (hamster, strain Syrian Golden, males, in drinking water, site: liver, lesion: several types, types named in the paper, dosed 102 weeks, study length 102 weeks) 7.55 mg/kg/day; (mouse, strain Swiss albino, females, in drinking water, site: blood vessels, lesion: several types, types named in the paper, dosed 92 weeks, study length 92 weeks) 12.2 mg/kg/day; (mouse, strain Swiss albino, females, in drinking water, site: blood vessels, lesion: several types, types named in the paper, dosed 99 weeks, study length 100 weeks) 6.04 mg/kg/day; (mouse, strain Swiss albino, females, in drinking water, site: gall bladder, lesion: adenoma, dosed 65 weeks, study length 73 weeks) 31.5 mg/kg/day; (mouse, strain Swiss albino, females, in drinking water, site: gall bladder, lesion: adenoma, dosed 92 weeks, study length 92 weeks) 39.7 mg/kg/day. Moreover, the TD50 is, setting by setting: (mouse, strain Swiss albino, females, in drinking water, site: gall bladder, lesion: several types, types named in the paper, dosed 92 weeks, study length 92 weeks) 31.3 mg/kg/day; (mouse, strain Swiss albino, females, in drinking water, site: gall bladder, lesion: several types, types named in the paper, dosed 99 weeks, study length 100 weeks) 57.9 mg/kg/day; (mouse, strain Swiss albino, females, in drinking water, site: liver, lesion: angioma, dosed 97 weeks, study length 102 weeks) 23.8 mg/kg/day (inactive); (mouse, strain Swiss albino, females, in drinking water, site: liver, lesion: hepatoma, benign, dosed 92 weeks, study length 92 weeks) 17.5 mg/kg/day; (mouse, strain Swiss albino, females, in drinking water, site: liver, lesion: hepatoma, benign, dosed 99 weeks, study length 100 weeks) 24.7 mg/kg/day; (mouse, strain Swiss albino, females, in drinking water, site: liver, lesion: hepatoma, dosed 65 weeks, study length 73 weeks) 19.5 mg/kg/day. Moreover, the TD50 (mouse, strain Swiss albino, females, in drinking water, site: liver, lesion: hepatoma, dosed 97 weeks, study length 102 weeks) was 9.23 mg/kg/day (inactive); the TD50 (mouse, strain Swiss albino, females, in drinking water, site: liver, lesion: liver-cell carcinoma, dosed 65 weeks, study length 73 weeks) was 19.9 mg/kg/day; the TD50 (mouse, strain Swiss albino, females, in drinking water, site: liver, lesion: liver-cell carcinoma, dosed 92 weeks, study length 92 weeks) was found to be 22.4 mg/kg/day; the TD50 (mouse, strain Swiss albino, females, in drinking water, site: liver, lesion: several types, types named in the paper, dosed 65 weeks, study length 73 weeks) was 10.4 mg/kg/day; the TD50 (mouse, strain Swiss albino, females, in drinking water, site: liver, lesion: several types, types named in the paper, dosed 92 weeks, study length 92 weeks) was 8.66 mg/kg/day; the TD50 (mouse, strain Swiss albino, females, in drinking water, site: lung, lesion: adenocarcinoma, dosed 97 weeks, study length 102 weeks) was found to be 1.12 mg/kg/day. Also, the TD50 runs as follows: (mouse, strain Swiss albino, females, in drinking water, site: lung, lesion: adenoma, dosed 97 weeks, study length 102 weeks) 1.5 mg/kg/day; (mouse, strain Swiss albino, females, in drinking water, site: lung, lesion: several types, types named in the paper, dosed 65 weeks, study length 73 weeks) 6.44 mg/kg/day; (mouse, strain Swiss albino, females, in drinking water, site: lung, lesion: several types, types named in the paper, dosed 92 weeks, study length 92 weeks) 2.16 mg/kg/day; (mouse, strain Swiss albino, females, in drinking water, site: lung, lesion: several types, types named in the paper, dosed 97 weeks, study length 102 weeks) 0.745 mg/kg/day; (mouse, strain Swiss albino, females, in drinking water, site: lung, lesion: several types, types named in the paper, dosed 99 weeks, study length 100 weeks) 0.921 mg/kg/day; (mouse, strain Swiss albino, males, in drinking water, site: bile duct, lesion: cholangioma, dosed 82 weeks, study length 82 weeks) 12.4 mg/kg/day. The TD50 by setting is: (mouse, strain Swiss albino, males, in drinking water, site: bile duct, lesion: several types, types named in the paper, dosed 65 weeks, study length 72 weeks) 36.2 mg/kg/day; (mouse, strain Swiss albino, males, in drinking water, site: blood vessels, lesion: several types, types named in the paper, dosed 96 weeks, study length 100 weeks) 3.47 mg/kg/day; (mouse, strain Swiss albino, males, in drinking water, site: forestomach, lesion: squamous-cell papilloma, dosed 97 weeks, study length 102 weeks) 11.2 mg/kg/day (inactive); (mouse, strain Swiss albino, males, in drinking water, site: gall bladder, lesion: adenoma, dosed 65 weeks, study length 72 weeks) 38 mg/kg/day; (mouse, strain Swiss albino, males, in drinking water, site: gall bladder, lesion: adenoma, dosed 82 weeks, study length 82 weeks) 15.2 mg/kg/day; (mouse, strain Swiss albino, males, in drinking water, site: gall bladder, lesion: adenoma, dosed 96 weeks, study length 100 weeks) 9.88 mg/kg/day. Moreover, the TD50 (mouse, strain Swiss albino, males, in drinking water, site: gall bladder, lesion: several types, types named in the paper, dosed 96 weeks, study length 100 weeks) was 9.1 mg/kg/day; the TD50 (mouse, strain Swiss albino, males, in drinking water, site: liver, lesion: several types, types named in the paper, dosed 65 weeks, study length 72 weeks) is 16.8 mg/kg/day; the TD50 (mouse, strain Swiss albino, males, in drinking water, site: liver, lesion: several types, types named in the paper, dosed 82 weeks, study length 82 weeks) was 1.03 mg/kg/day; the TD50 (mouse, strain Swiss albino, males, in drinking water, site: liver, lesion: several types, types named in the paper, dosed 96 weeks, study length 100 weeks) was 5.47 mg/kg/day; the TD50 (mouse, strain Swiss albino, males, in drinking water, site: lung, lesion: adenocarcinoma, dosed 97 weeks, study length 102 weeks) came to 2.48 mg/kg/day; the TD50 (mouse, strain Swiss albino, males, in drinking water, site: lung, lesion: adenoma, dosed 97 weeks, study length 102 weeks) was 1.3 mg/kg/day. Besides, the TD50 by setting is: (mouse, strain Swiss albino, males, in drinking water, site: lung, lesion: several types, types named in the paper, dosed 65 weeks, study length 72 weeks) 14.2 mg/kg/day; (mouse, strain Swiss albino, males, in drinking water, site: lung, lesion: several types, types named in the paper, dosed 82 weeks, study length 82 weeks) 1.87 mg/kg/day; (mouse, strain Swiss albino, males, in drinking water, site: lung, lesion: several types, types named in the paper, dosed 96 weeks, study length 100 weeks) 1.72 mg/kg/day; (mouse, strain Swiss albino, males, in drinking water, site: lung, lesion: several types, types named in the paper, dosed 97 weeks, study length 102 weeks) 0.865 mg/kg/day; (mouse, strain Swiss albino, males, in drinking water, site: seminal vesicle, lesion: adenoma, dosed 82 weeks, study length 82 weeks) 20.7 mg/kg/day (inactive); (mouse, strain Swiss albino, males, in drinking water, site: stomach, glandular, lesion: polypoid adenoma, dosed 97 weeks, study length 102 weeks) 3.43 mg/kg/day (inactive). Where the note is “mouse, strain Swiss albino, males, in drinking water, site: subcutaneous tissue, lesion: fibrosarcoma, dosed 97 weeks, study length 102 weeks”, the TD50 is 2.6 mg/kg/day (inactive).

As to `CC(Cl)CCl` (stereo unspecified), the TD50 is, setting by setting: (mouse, strain B6C3F1, females, by gavage, site: any site (literature study), lesion: several types, types named in the paper, dosed 103 weeks, study length 105 weeks) 341 mg/kg/day; (mouse, strain B6C3F1, females, by gavage, site: forestomach, lesion: squamous-cell carcinoma + squamous-cell papilloma, dosed 103 weeks, study length 105 weeks) 1020 mg/kg/day; (mouse, strain B6C3F1, females, by gavage, site: liver, lesion: hepatocellular adenoma + hepatocellular carcinoma + neoplastic nodule, dosed 103 weeks, study length 105 weeks) 346 mg/kg/day; (mouse, strain B6C3F1, females, by gavage, site: liver, lesion: hepatocellular adenoma + hepatocellular carcinoma, dosed 103 weeks, study length 105 weeks) 346 mg/kg/day; (mouse, strain B6C3F1, females, by gavage, site: liver, lesion: hepatocellular adenoma, dosed 103 weeks, study length 105 weeks) 562 mg/kg/day; (mouse, strain B6C3F1, males, by gavage, site: any site (literature study), lesion: several types, types named in the paper, dosed 103 weeks, study length 105 weeks) 397 mg/kg/day. The TD50 is 1520 mg/kg/day (mouse, strain B6C3F1, males, by gavage, site: forestomach, lesion: squamous-cell papilloma, dosed 103 weeks, study length 105 weeks); 229 mg/kg/day (mouse, strain B6C3F1, males, by gavage, site: liver, lesion: hepatocellular adenoma + hepatocellular carcinoma + neoplastic nodule, dosed 103 weeks, study length 105 weeks); 229 mg/kg/day (mouse, strain B6C3F1, males, by gavage, site: liver, lesion: hepatocellular adenoma + hepatocellular carcinoma, dosed 103 weeks, study length 105 weeks); 384 mg/kg/day (mouse, strain B6C3F1, males, by gavage, site: liver, lesion: hepatocellular adenoma, dosed 103 weeks, study length 105 weeks); 5070 mg/kg/day (mouse, strain B6C3F1, males, by gavage, site: lung, lesion: alveolar/bronchiolar adenoma + alveolar/bronchiolar carcinoma, dosed 103 weeks, study length 105 weeks); 240 mg/kg/day (rat, strain Fischer 344, females, by gavage, site: any site (literature study), lesion: several types, types named in the paper, dosed 103 weeks, study length 105 weeks). Also, the TD50 was 767 mg/kg/day (rat, strain Fischer 344, females, by gavage, site: mammary gland, lesion: adenocarcinoma, NOS, dosed 103 weeks, study length 105 weeks); 69.7 mg/kg/day (inactive) (rat, strain Fischer 344, males, by gavage, site: any site (literature study), lesion: several types, types named in the paper, dosed 103 weeks, study length 106 weeks); 2570 mg/kg/day (rat, strain Fischer 344, males, by gavage, site: liver, lesion: hepatocellular adenoma + hepatocellular carcinoma + neoplastic nodule, dosed 103 weeks, study length 106 weeks).

Regarding `C1CCC(C(CC2CCCCN2)C2CCCCC2)CC1` (stereo unspecified), the carcinogen call reads like this: (rat, females, in feed, site: liver, study length 52 weeks) “negative (inactive)”; (rat, females, in feed, site: liver, study length 56 weeks) “negative (inactive)”; (rat, males, in feed, site: liver, study length 52 weeks) “negative (inactive)”; (rat, males, in feed, site: liver, study length 56 weeks) “negative (inactive)”.

Consider `O=c1c(O)c(-c2ccc(O)cc2)oc2cc(O)cc(O)c12`, for which the TD50 is 55.3 mg/kg/day (inactive) (rat, strain ACI, females, in feed, site: any site (literature study), lesion: several types, types named in the paper, dosed 77 weeks, study length 77 weeks) and 17.9 mg/kg/day (inactive) (rat, strain ACI, males, in feed, site: adrenal gland, lesion: cortical adenoma, dosed 77 weeks, study length 77 weeks).
